# Experimental data taken from ChEMBL document CHEMBL5442175, “EUbOPEN Chemogenomics Library - PDSP Secondary Binding” (2024).
# What was measured:
# [1] = biological target: T1, Alpha-1D adrenergic receptor (Homo sapiens, UniProt P25100); assay: (§1) PDSP Secondary Binding target: ADRA1D - Compounds are tested at 10 uM concentration, plate are incubated at room temperature in the dark for 90 minutes. Reaction are stopped by vacuum filtration onto 0.3% polyethyleneimine soaked filter mats using Filtermate harvester. Scintillation cocktail is then melted onto microwave-dried filters on a hot plate and the radio activity is counted in Microbia counter.
# T1 sequence (P25100 whole entry): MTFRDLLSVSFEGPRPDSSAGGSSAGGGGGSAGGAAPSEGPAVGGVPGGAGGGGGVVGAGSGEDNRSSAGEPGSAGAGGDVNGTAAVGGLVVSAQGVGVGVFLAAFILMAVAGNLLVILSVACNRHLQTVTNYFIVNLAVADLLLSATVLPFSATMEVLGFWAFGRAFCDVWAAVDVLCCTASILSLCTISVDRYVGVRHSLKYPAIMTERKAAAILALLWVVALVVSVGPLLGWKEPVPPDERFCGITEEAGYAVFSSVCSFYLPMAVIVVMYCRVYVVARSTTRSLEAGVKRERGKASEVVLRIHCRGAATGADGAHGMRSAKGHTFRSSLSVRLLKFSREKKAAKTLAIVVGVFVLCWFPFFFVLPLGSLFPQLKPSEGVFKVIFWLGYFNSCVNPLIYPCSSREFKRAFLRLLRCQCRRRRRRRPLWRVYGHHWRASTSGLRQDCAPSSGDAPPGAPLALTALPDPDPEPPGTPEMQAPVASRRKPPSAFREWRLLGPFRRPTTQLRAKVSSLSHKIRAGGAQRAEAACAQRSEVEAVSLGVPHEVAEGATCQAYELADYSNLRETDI
# [2] = biological target: Muscarinic acetylcholine receptor M3 (Homo sapiens, UniProt P20309); assay: as §1, with “CHRM3” for “ADRA1D”
# [3] = biological target: 5-hydroxytryptamine receptor 1D (Homo sapiens, UniProt P28221); assay: as §1, with “HTR1D” for “ADRA1D”
# [4] = biological target: T2, Muscarinic acetylcholine receptor M1 (Homo sapiens, UniProt P11229); assay: as §1, with “CHRM1” for “ADRA1D”
# T2 sequence (P11229 whole entry): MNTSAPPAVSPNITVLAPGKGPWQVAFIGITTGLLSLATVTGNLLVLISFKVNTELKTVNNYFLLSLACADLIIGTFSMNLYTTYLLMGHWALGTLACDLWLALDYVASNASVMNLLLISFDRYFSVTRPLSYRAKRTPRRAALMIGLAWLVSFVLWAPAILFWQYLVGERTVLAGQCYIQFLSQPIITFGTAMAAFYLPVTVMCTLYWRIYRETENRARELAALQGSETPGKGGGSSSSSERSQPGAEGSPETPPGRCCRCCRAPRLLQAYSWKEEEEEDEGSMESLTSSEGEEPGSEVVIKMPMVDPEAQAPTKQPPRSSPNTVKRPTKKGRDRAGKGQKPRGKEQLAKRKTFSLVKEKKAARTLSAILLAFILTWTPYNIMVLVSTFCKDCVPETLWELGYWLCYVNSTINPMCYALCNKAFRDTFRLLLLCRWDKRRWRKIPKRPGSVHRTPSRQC
# [5] = biological target: 5-hydroxytryptamine receptor 2A (Homo sapiens, UniProt P28223); assay: as §1, with “HTR2A” for “ADRA1D”
# [6] = biological target: Sigma non-opioid intracellular receptor 1 (Homo sapiens, UniProt Q99720); assay: as §1, with “SIGMAR1” for “ADRA1D”
# D(1B) dopamine receptor = D(1B) dopamine receptor (Homo sapiens, UniProt P21918); assay: as §1, with “DRD5” for “ADRA1D”
# Histamine H2 receptor = Histamine H2 receptor (Homo sapiens, UniProt P25021); assay: as §1, with “HRH2” for “ADRA1D”
# [7] = biological target: 5-hydroxytryptamine receptor 6 (Homo sapiens, UniProt P50406); assay: as §1, with “HTR6” for “ADRA1D”
# [8] = biological target: 5-hydroxytryptamine receptor 7 (Homo sapiens, UniProt P34969); assay: as §1, with “HTR7” for “ADRA1D”
# [9] = biological target: Sodium-dependent noradrenaline transporter (Homo sapiens, UniProt P23975); assay: as §1, with “SLC6A2” for “ADRA1D”
# [10] = biological target: T3, 5-hydroxytryptamine receptor 3A (Homo sapiens, UniProt P46098); assay: as §1, with “HTR3A” for “ADRA1D”
# T3 sequence (P46098 whole entry): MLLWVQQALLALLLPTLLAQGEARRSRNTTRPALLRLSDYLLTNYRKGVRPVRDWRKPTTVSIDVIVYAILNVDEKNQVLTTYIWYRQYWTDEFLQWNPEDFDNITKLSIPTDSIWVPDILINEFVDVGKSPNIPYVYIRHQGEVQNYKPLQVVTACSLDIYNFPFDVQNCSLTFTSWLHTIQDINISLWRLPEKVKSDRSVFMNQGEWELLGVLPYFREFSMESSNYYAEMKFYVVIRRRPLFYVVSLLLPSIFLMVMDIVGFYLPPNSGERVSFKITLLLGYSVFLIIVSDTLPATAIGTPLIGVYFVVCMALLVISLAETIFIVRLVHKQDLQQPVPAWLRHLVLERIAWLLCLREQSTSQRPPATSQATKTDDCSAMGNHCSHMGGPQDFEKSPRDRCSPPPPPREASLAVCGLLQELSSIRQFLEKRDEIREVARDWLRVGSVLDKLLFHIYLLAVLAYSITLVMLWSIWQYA
# [11] = biological target: T4, Alpha-1B adrenergic receptor (Homo sapiens, UniProt P35368); assay: as §1, with “ADRA1B” for “ADRA1D”
# T4 sequence (P35368 whole entry): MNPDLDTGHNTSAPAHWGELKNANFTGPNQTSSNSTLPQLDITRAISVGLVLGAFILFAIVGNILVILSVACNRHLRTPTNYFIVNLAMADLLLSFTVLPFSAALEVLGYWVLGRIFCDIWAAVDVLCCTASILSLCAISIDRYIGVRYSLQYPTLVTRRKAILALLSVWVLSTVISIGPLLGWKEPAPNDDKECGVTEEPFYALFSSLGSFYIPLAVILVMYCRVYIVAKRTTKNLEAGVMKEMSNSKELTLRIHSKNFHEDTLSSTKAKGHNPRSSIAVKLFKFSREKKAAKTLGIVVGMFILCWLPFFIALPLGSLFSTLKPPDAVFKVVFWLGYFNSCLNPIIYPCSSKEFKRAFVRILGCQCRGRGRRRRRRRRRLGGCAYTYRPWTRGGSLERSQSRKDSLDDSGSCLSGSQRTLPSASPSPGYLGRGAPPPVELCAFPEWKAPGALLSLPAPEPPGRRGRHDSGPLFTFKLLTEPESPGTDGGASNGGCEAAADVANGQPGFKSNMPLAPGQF
# D(3) dopamine receptor = D(3) dopamine receptor (Homo sapiens, UniProt P35462); assay: as §1, with “DRD3” for “ADRA1D”
# D(2) dopamine receptor = D(2) dopamine receptor (Homo sapiens, UniProt P14416); assay: as §1, with “DRD2” for “ADRA1D”
# Chain of D(2) dopamine receptor (P14416 whole entry): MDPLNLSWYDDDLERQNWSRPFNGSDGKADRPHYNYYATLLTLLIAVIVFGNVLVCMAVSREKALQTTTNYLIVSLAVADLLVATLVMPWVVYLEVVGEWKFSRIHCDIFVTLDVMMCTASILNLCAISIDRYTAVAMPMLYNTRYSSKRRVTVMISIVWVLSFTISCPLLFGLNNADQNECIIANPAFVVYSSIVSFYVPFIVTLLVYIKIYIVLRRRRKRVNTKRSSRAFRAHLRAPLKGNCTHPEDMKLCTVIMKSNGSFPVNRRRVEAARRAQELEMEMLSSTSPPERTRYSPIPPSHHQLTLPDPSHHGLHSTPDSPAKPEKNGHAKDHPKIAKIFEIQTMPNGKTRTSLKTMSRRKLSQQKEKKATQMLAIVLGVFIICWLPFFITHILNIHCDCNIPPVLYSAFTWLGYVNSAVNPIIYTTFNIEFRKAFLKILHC
# Chain of 5-hydroxytryptamine receptor 7 (P34969 whole entry): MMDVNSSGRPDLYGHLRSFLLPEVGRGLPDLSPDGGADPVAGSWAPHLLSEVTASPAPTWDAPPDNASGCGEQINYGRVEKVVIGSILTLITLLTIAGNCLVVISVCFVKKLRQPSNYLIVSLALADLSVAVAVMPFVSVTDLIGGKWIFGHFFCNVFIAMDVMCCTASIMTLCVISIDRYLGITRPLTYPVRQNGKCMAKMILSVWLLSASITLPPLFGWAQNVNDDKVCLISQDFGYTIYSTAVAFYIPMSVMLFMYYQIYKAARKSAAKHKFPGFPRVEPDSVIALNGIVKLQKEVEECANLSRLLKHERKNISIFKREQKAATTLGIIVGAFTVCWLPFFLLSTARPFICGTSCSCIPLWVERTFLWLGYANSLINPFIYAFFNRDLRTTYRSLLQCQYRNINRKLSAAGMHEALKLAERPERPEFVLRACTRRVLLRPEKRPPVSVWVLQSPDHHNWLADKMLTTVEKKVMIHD
# Chain of D(3) dopamine receptor (P35462 whole entry): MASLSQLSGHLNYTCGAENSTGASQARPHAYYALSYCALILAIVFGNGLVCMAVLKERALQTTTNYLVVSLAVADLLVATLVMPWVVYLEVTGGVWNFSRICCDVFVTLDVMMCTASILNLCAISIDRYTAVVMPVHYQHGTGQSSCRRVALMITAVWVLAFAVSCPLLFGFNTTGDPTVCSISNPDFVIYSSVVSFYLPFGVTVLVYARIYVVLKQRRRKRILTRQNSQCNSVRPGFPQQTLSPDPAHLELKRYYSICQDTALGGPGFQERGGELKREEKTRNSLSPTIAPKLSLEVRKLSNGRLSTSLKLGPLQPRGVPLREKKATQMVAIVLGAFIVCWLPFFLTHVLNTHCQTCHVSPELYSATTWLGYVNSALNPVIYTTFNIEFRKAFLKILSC
# Chain of 5-hydroxytryptamine receptor 6 (P50406 whole entry): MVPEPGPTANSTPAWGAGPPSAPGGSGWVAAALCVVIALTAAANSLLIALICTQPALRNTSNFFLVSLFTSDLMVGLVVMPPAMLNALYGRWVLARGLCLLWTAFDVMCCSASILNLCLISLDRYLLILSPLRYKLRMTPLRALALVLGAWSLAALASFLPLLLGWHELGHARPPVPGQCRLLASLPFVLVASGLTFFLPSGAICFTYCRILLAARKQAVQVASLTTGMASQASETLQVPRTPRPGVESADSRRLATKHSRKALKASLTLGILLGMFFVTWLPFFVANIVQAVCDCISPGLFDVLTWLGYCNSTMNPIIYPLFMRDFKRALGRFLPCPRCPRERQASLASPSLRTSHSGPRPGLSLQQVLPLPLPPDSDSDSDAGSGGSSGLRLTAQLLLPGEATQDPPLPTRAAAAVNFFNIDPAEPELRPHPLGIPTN
# Chain of Sigma non-opioid intracellular receptor 1 (Q99720 whole entry): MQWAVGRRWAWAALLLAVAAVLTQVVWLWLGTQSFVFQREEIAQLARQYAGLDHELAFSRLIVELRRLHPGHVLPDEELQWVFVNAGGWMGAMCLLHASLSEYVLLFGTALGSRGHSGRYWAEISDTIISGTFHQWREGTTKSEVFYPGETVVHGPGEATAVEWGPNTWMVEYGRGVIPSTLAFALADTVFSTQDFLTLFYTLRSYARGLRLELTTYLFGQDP
# Chain of 5-hydroxytryptamine receptor 2A (P28223 whole entry): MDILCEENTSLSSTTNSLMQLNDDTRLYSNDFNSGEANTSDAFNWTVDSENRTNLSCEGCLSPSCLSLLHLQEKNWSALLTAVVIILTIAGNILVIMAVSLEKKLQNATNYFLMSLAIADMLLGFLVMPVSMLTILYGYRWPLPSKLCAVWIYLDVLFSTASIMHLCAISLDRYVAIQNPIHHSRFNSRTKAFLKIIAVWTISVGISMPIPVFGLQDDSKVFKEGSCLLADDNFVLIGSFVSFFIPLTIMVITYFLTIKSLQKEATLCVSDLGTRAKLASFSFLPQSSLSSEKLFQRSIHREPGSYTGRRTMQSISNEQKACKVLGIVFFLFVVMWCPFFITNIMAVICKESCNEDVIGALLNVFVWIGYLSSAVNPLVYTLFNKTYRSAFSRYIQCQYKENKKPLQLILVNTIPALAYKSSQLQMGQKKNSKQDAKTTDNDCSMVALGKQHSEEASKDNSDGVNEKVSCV
# Chain of Histamine H2 receptor (P25021 whole entry): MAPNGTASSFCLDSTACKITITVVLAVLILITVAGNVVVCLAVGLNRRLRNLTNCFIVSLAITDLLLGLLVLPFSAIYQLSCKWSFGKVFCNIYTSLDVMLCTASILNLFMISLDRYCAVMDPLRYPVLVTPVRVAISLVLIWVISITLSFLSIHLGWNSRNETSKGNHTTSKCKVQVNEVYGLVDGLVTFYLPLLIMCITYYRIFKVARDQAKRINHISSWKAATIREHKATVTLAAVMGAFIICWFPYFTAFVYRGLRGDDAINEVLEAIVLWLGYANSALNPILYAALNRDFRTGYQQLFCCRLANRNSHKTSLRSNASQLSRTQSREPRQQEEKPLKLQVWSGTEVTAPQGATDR
# Chain of D(1B) dopamine receptor (P21918 whole entry): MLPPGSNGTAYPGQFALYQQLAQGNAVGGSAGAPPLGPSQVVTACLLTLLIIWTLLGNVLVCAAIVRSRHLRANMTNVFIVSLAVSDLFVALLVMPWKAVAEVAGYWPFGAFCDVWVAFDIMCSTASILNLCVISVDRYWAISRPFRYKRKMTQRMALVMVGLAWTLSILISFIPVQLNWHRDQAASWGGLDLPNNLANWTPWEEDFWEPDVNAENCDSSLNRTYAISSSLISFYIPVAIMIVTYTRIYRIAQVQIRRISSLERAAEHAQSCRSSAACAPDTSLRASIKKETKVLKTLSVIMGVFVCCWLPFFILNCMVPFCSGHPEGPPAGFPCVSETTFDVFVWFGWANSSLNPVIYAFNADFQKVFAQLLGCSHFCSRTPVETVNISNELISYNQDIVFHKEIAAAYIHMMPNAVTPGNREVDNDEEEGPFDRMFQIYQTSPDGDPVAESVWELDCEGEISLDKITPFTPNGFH
# Chain of Sodium-dependent noradrenaline transporter (P23975 whole entry): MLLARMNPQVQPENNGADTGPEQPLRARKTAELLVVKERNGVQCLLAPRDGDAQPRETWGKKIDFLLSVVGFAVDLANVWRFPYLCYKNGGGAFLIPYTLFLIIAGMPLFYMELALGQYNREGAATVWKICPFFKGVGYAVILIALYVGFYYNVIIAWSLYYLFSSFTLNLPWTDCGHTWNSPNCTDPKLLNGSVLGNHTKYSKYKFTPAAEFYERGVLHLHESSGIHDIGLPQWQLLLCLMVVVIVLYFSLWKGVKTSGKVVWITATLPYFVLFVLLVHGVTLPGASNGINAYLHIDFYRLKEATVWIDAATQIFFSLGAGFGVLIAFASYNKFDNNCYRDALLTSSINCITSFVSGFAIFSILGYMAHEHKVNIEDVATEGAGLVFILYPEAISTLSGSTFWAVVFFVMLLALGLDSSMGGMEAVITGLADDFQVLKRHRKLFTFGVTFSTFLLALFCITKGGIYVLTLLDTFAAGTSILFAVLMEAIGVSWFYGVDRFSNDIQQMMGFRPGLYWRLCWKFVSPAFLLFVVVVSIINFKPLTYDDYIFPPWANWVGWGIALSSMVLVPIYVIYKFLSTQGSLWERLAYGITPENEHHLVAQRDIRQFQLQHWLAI
# Chain of Muscarinic acetylcholine receptor M3 (P20309 whole entry): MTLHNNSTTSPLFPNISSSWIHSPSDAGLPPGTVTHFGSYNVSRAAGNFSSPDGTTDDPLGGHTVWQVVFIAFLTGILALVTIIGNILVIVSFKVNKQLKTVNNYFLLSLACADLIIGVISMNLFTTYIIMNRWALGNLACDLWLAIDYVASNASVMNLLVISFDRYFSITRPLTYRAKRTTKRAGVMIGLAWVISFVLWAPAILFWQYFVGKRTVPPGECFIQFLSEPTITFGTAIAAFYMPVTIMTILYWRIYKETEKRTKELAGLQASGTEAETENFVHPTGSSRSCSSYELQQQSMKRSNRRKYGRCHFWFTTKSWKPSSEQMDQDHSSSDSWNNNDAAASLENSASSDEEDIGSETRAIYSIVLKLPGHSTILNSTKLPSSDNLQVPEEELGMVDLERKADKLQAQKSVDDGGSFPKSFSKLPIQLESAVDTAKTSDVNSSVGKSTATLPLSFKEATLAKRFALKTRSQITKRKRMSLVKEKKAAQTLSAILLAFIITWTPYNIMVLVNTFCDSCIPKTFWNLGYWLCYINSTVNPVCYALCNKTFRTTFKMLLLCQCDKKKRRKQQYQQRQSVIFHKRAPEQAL
# Chain of 5-hydroxytryptamine receptor 1D (P28221 whole entry): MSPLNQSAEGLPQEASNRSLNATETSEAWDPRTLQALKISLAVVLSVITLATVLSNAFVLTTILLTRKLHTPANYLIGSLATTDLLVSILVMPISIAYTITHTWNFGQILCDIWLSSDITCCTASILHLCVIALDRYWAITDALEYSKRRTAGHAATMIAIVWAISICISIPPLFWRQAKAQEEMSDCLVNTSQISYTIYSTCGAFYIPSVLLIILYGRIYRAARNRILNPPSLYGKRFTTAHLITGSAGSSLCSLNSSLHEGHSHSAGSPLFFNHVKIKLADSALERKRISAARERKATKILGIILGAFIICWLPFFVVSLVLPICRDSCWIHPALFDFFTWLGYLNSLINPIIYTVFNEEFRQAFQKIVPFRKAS
smiles,measurement,setting,value
CN1C2CCC1CC(OC(c1ccc(F)cc1)c1ccc(F)cc1)C2 (stereo not given),Ki,[1],0.0582 µM
same,Ki,[2],0.00582 µM
same,Ki,[3],1.13 µM
same,Ki,[4],0.00974 µM
same,Ki,[5],0.0174 µM
same,Ki,[6],0.0988 µM
same,Ki,D(1B) dopamine receptor,0.393 µM
same,Ki,Histamine H2 receptor,0.594 µM
same,Ki,[7],0.374 µM
same,Ki,[8],0.126 µM
same,Ki,[9],0.769 µM
same,Ki,[10],2.07 µM
same,Ki,[11],0.263 µM
same,Ki,D(3) dopamine receptor,0.116 µM
same,Ki,D(2) dopamine receptor,0.767 µM
